Legend:
Assay type in all cases: in vivo
Kochia (Kochia scoparia) [1] = assay: Test A preemergence; settings: Bassia scoparia, pre-emergence, 240 h; for pest or weed control at 125 g/ha: 125 g ai/ha, Preemergence, visual injury rating after approximately 10 d, read-out: Kochia plant response rating (0 to 100 scale, 0 is no effect, 100 is complete control); for pest or weed control at 500 g/ha: 500 g ai/ha, preemergence, visual injury rating about 10 d after treatment, 0 to 100 scale (0 no effect, 100 complete control), read-out: Kochia plant response rating
Summary of the method: (§1)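 Visual injury scores from 0, no effect, to 100, complete control, were assigned versus untreated controls roughly 10 d after treatment in the greenhouse. Test chemicals, formulated with surfactant in a non-phytotoxic solvent, were applied to planted seeds as a preemergence soil spray or postemergence to one- to two-leaf plants 2 to 10 cm tall, in loam–sand soil.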

[2] = test system: barnyardgrass (Echinochloa crus-galli); assay: Test A preemergence; settings: Echinochloa crus-galli, pre-emergence, 240 h; for pest or weed control at 125 g/ha: 125 g ai/ha, Preemergence, visual injury rating after approximately 10 d, read-out: Barnyardgrass plant response rating (0 to 100 scale, 0 is no effect, 100 is complete control); for pest or weed control at 500 g/ha: 500 g ai/ha, preemergence, visual injury rating about 10 d after treatment, 0 to 100 scale (0 no effect, 100 complete control), read-out: Barnyardgrass plant response rating
Summary of the method: as §1

[3] = test system: giant foxtail (Setaria faberii); assay: Test A preemergence; settings: Setaria faberi, pre-emergence, 240 h; for pest or weed control at 125 g/ha: 125 g ai/ha, Preemergence, visual injury rating after approximately 10 d, read-out: Foxtail, Giant plant response rating (0 to 100 scale, 0 is no effect, 100 is complete control); for pest or weed control at 500 g/ha: 500 g ai/ha, preemergence, visual injury rating about 10 d after treatment, 0 to 100 scale (0 no effect, 100 complete control), read-out: Foxtail, Giant plant response rating
Summary of the method: as §1

[4] = test system: pigweed (Amaranthus retroflexus); assay: Test A preemergence; settings: Amaranthus retroflexus, pre-emergence, 240 h; for pest or weed control at 125 g/ha: 125 g ai/ha, Preemergence, visual injury rating after approximately 10 d, read-out: Pigweed plant response rating (0 to 100 scale, 0 is no effect, 100 is complete control); for pest or weed control at 500 g/ha: 500 g ai/ha, preemergence, visual injury rating about 10 d after treatment, 0 to 100 scale (0 no effect, 100 complete control), read-out: Pigweed plant response rating
[5] = test system: ragweed (common ragweed, Ambrosia elatior); assay: Test A preemergence; settings: Ambrosia artemisiifolia, pre-emergence, 240 h; for pest or weed control at 125 g/ha: 125 g ai/ha, Preemergence, visual injury rating after approximately 10 d, read-out: Ragweed plant response rating (0 to 100 scale, 0 is no effect, 100 is complete control); for pest or weed control at 500 g/ha: 500 g ai/ha, preemergence, visual injury rating about 10 d after treatment, 0 to 100 scale (0 no effect, 100 complete control), read-out: Ragweed plant response rating
Summary of the method: as §1

[6] = test system: ryegrass, Italian (Italian ryegrass, Lolium multiflorum); assay: Test A preemergence; settings: Lolium multiflorum, pre-emergence, 240 h; for pest or weed control at 125 g/ha: 125 g ai/ha, Preemergence, visual injury rating after approximately 10 d, read-out: Ryegrass, Italian plant response rating (0 to 100 scale, 0 is no effect, 100 is complete control); for pest or weed control at 500 g/ha: 500 g ai/ha, preemergence, visual injury rating about 10 d after treatment, 0 to 100 scale (0 no effect, 100 complete control), read-out: Ryegrass, Italian plant response rating
Summary of the method: as §1

[7] = test system: Galium (catchweed bedstraw, Galium aparine); assay: Test A postemergence; settings: Galium, post-emergence, 240 h, 125 g ai/ha, Postemergence; visual injury after approximately 10 d; 0 to 100 scale where 0 is no effect and 100 is complete control; read-out: Plant response rating, Galium
Summary of the method: as §1

Kochia (Kochia scoparia) [8] = assay: Test A postemergence; settings: Bassia scoparia, post-emergence, 240 h, 125 g ai/ha, Postemergence; visual injury after approximately 10 d; 0 to 100 scale where 0 is no effect and 100 is complete control; read-out: Plant response rating, Kochia
Summary of the method: as §1

[9] = test system: barnyardgrass (Echinochloa crus-galli); assay: Test A postemergence; settings: Echinochloa crus-galli, post-emergence, 240 h, 125 g ai/ha, Postemergence; visual injury after approximately 10 d; 0 to 100 scale where 0 is no effect and 100 is complete control; read-out: Plant response rating, Barnyardgrass
Summary of the method: as §1

[10] = test system: blackgrass (Alopecurus myosuroides); assay: Test A postemergence; settings: Alopecurus myosuroides, post-emergence, 240 h, 125 g ai/ha, Postemergence; visual injury after approximately 10 d; 0 to 100 scale where 0 is no effect and 100 is complete control; read-out: Plant response rating, Blackgrass
Summary of the method: as §1

corn (Zea mays) = assay: Test A postemergence; settings: Zea mays, post-emergence, 240 h, 125 g ai/ha, Postemergence; visual injury after approximately 10 d; 0 to 100 scale where 0 is no effect and 100 is complete control
Summary of the method: as §1

[11] = test system: giant foxtail (Setaria faberii); assay: Test A postemergence; settings: Setaria faberi, post-emergence, 240 h, 125 g ai/ha, Postemergence; visual injury after approximately 10 d; 0 to 100 scale where 0 is no effect and 100 is complete control; read-out: Plant response rating, Foxtail, Giant
Summary of the method: as §1

[12] = test system: pigweed (Amaranthus retroflexus); assay: Test A postemergence; settings: Amaranthus retroflexus, post-emergence, 240 h, 125 g ai/ha, Postemergence; visual injury after approximately 10 d; 0 to 100 scale where 0 is no effect and 100 is complete control; read-out: Plant response rating, Pigweed
Summary of the method: as §1

[13] = test system: ragweed (common ragweed, Ambrosia elatior); assay: Test A postemergence; settings: Ambrosia artemisiifolia, post-emergence, 240 h, 125 g ai/ha, Postemergence; visual injury after approximately 10 d; 0 to 100 scale where 0 is no effect and 100 is complete control; read-out: Plant response rating, Ragweed
Summary of the method: as §1

[14] = test system: ryegrass, Italian (Italian ryegrass, Lolium multiflorum); assay: Test A postemergence; settings: Lolium multiflorum, post-emergence, 240 h, 125 g ai/ha, Postemergence; visual injury after approximately 10 d; 0 to 100 scale where 0 is no effect and 100 is complete control; read-out: Plant response rating, Ryegrass, Italian
Summary of the method: as §1

[15] = test system: wheat (Triticum aestivum); assay: Test A postemergence; settings: Triticum aestivum, post-emergence, 240 h, 125 g ai/ha, Postemergence; visual injury after approximately 10 d; 0 to 100 scale where 0 is no effect and 100 is complete control; read-out: Plant response rating, Wheat
Summary of the method: as §1

[16] = test system: barnyardgrass (Echinochloa crus-galli); assay: Test B flooded paddy test; settings: Echinochloa crus-galli, Flood, 250 g ai/ha; scale of 0 to 100 where 0 is no effect and 100 is complete control; read-out: Barnyardgrass plant response rating
Summary of the method: (§2)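 Compound goes directly into floodwater once pots are flooded 3 cm above soil, targeting plants at two leaves; the water depth is then held for the test duration. Plants sit 13–15 d in a greenhouse and are rated visually, 100 denoting complete control.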

[17] = test system: ducksalad (Heteranthera limosa); assay: Test B flooded paddy test; settings: Heteranthera limosa, Flood, 250 g ai/ha; scale of 0 to 100 where 0 is no effect and 100 is complete control; read-out: Ducksalad plant response rating
Summary of the method: as §2

rice (Oryra sativa) = assay: Test B flooded paddy test; settings: Oryza sativa, Flood, 250 g ai/ha; scale of 0 to 100 where 0 is no effect and 100 is complete control; read-out: Rice plant response rating
Summary of the method: as §2

[18] = test system: sedge, umbrella (small-flower umbrella sedge, Cyperus difformis); assay: Test B flooded paddy test; settings: Cyperus difformis, Flood, 250 g ai/ha; scale of 0 to 100 where 0 is no effect and 100 is complete control; read-out: Sedge, Umbrella plant response rating
Summary of the method: as §2

CCOc1cccc([C@H]2CN(C)C(=O)[C@@H]2C(=O)Nc2ccccc2F)c1 [Compound 955]
pest or weed control at 125 g/ha (Kochia (Kochia scoparia) [1]): 30%
pest or weed control at 500 g/ha (Kochia (Kochia scoparia) [1]): 70%
pest or weed control at 125 g/ha [2]: 100%
pest or weed control at 500 g/ha [2]: 100%
pest or weed control at 125 g/ha [3]: 100%
pest or weed control at 500 g/ha [3]: 100%
pest or weed control at 125 g/ha [4]: 0%
pest or weed control at 500 g/ha [4]: 0%
pest or weed control at 125 g/ha [5]: 0%
pest or weed control at 500 g/ha [5]: 30%
pest or weed control at 125 g/ha [6]: 70%
pest or weed control at 500 g/ha [6]: 60%
pest or weed control at 125 g/ha [7]: 20%
pest or weed control at 125 g/ha (Kochia (Kochia scoparia) [8]): 20%
pest or weed control at 125 g/ha [9]: 90%
pest or weed control at 125 g/ha [10]: 0%
Corn plant response rating (crop injury, 0 = no effect, 100 = complete kill) at 125 g/ha (corn (Zea mays)): 0%
pest or weed control at 125 g/ha [11]: 80%
pest or weed control at 125 g/ha [12]: 0%
pest or weed control at 125 g/ha [13]: 0%
pest or weed control at 125 g/ha [14]: 30%
plant injury at 125 g/ha [15]: 0%
pest or weed control at 250 g/ha [16]: 70%
pest or weed control at 250 g/ha [17]: 90%
pest or weed control at 250 g/ha (rice (Oryra sativa)): 0%
pest or weed control at 250 g/ha [18]: 0%

O=C1NC[C@H](c2csc(C(F)(F)F)c2)[C@H]1C(=O)Nc1cccc(F)c1F [Compound 957]
pest or weed control at 125 g/ha (Kochia (Kochia scoparia) [1]): 30%
pest or weed control at 500 g/ha (Kochia (Kochia scoparia) [1]): 80%
pest or weed control at 125 g/ha [2]: 70%
pest or weed control at 500 g/ha [2]: 100%
pest or weed control at 125 g/ha [3]: 20%
pest or weed control at 500 g/ha [3]: 70%
pest or weed control at 125 g/ha [4]: 20%
pest or weed control at 500 g/ha [4]: 20%
pest or weed control at 125 g/ha [5]: 0%
pest or weed control at 500 g/ha [5]: 30%
pest or weed control at 125 g/ha [6]: 0%
pest or weed control at 500 g/ha [6]: 40%
pest or weed control at 125 g/ha [7]: 40%
pest or weed control at 125 g/ha (Kochia (Kochia scoparia) [8]): 20%
pest or weed control at 125 g/ha [9]: 80%
pest or weed control at 125 g/ha [10]: 20%
Corn plant response rating (crop injury, 0 = no effect, 100 = complete kill) at 125 g/ha (corn (Zea mays)): 0%
pest or weed control at 125 g/ha [11]: 0%
pest or weed control at 125 g/ha [12]: 0%
pest or weed control at 125 g/ha [13]: 0%
pest or weed control at 125 g/ha [14]: 20%
plant injury at 125 g/ha [15]: 0%
pest or weed control at 250 g/ha [16]: 30%
pest or weed control at 250 g/ha [17]: 100%
pest or weed control at 250 g/ha (rice (Oryra sativa)): 0%
pest or weed control at 250 g/ha [18]: 0%
